Measured values: PubChem BioAssay (NCI)
Where “and” joins values, the source holds several entries; their conditions need not be identical. Equal entries are not always repeated.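 All cell lines were grown in 96-well plates and treated with compound for 48 hours. GI50 marks 50% less growth. Definition used: TGI = concentration required for complete inhibition of growth.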

What was measured:
Test in all cases: NCI anticancer screen, dose series, 48 h
[1] = test system: A549 NSCLC
[2] = test system: M19-MEL melanoma
[3] = test system: KM20L2 colon
[4] = test system: SK-MEL-28 melanoma
[5] = test system: DMS 114 small cell lung
[6] = test system: SF-539 CNS
[7] = test system: SNB-78 CNS
[8] = test system: KM12 colon
[9] = test system: LXFL 529 NSCLC
[10] = test system: DLD-1 colon
[11] = test system: T-47D breast
[12] = test system: HS 578T breast

O=c1c2cccnc2ncn1CCCN1CCOCC1
TGI [1]: > 100 µM
TGI [2]: > 100 µM
TGI [3]: > 100 µM
TGI [4]: > 100 µM
TGI [5]: > 100 µM
TGI [6]: > 100 µM
TGI [7]: > 100 µM
TGI [8]: > 100 µM
TGI [9]: > 100 µM
TGI [10]: > 100 µM

N#Cc1nc(Nc2ccc([N+](=O)[O-])cc2)sc1N
TGI [1]: > 100 µM
TGI [2]: > 100 µM
TGI [3]: > 100 µM
TGI [4]: > 74.3 µM
TGI [6]: 18.7 µM
TGI [7]: > 93 µM
TGI [8]: > 100 µM
TGI [9]: > 100 µM
TGI [10]: > 100 µM

CCOC(=O)C1(C(=O)OCC)CC=C(C)CC12C(=O)Nc1ccccc12 (configuration not stated)
TGI [1]: > 100 µM
TGI [2]: > 100 µM
TGI [3]: > 100 µM
TGI [4]: > 100 µM
TGI [5]: > 100 µM
TGI [6]: > 100 µM
TGI [8]: > 100 µM
TGI [9]: > 100 µM
TGI [10]: > 100 µM

CC1=C(c2cc(C(=O)Nc3cccc(C(F)(F)F)c3)nc(NC#N)n2)Sc2ccccc2N1
TGI [1]: > 100 µM
TGI [2]: > 100 µM
TGI [3]: > 100 µM
TGI [4]: > 100 µM
TGI [5]: > 100 µM
TGI [6]: > 100 µM
TGI [7]: > 100 µM
TGI [8]: > 100 µM
TGI [9]: > 100 µM
TGI [10]: > 100 µM

CC(C)(C)C(=O)OCC(COC(=O)C(C)(C)C)[N+](=O)[O-]
TGI [1]: > 100 µM
TGI [2]: > 100 µM
TGI [4]: > 100 µM
TGI [5]: > 100 µM
TGI [6]: > 100 µM
TGI [8]: > 100 µM
TGI [9]: > 100 µM
TGI [10]: > 100 µM

COc1ccc(N2C(=O)C3c4[nH]c5ccccc5c4C4CCC(C(C)(C)C)CC4C3C2=O)cc1OC (configuration not stated)
TGI [1]: 32.6 µM
TGI [2]: > 100 µM
TGI [3]: > 100 µM
TGI [4]: > 100 µM
TGI [6]: 34.7 µM
TGI [7]: 56.4 µM
TGI [9]: 32.5 µM
TGI [10]: 39.9 µM

O=C1CCC(=O)C12CCc1cccc(O)c12
TGI [1]: > 100 µM
TGI [2]: > 100 µM
TGI [3]: > 100 µM
TGI [4]: > 100 µM
TGI [5]: > 100 µM
TGI [7]: > 100 µM
TGI [9]: > 100 µM
TGI [10]: > 100 µM

COC1(OC)c2ccccc2C2(O)c3ccccc3C(=O)C12 (configuration not stated)
TGI [2]: > 100 µM
TGI [3]: > 100 µM
TGI [4]: > 100 µM
TGI [5]: > 100 µM
TGI [6]: > 100 µM
TGI [7]: > 100 µM
TGI [8]: > 100 µM
TGI [9]: > 100 µM

Cn1cnc([N+](=O)[O-])c1Sc1nnc(C(F)(F)F)n1C
TGI [1]: > 100 µM
TGI [2]: 37.2 µM
TGI [4]: 38.1 µM
TGI [5]: > 100 µM
TGI [6]: 65.7 µM
TGI [7]: > 100 µM
TGI [8]: > 100 µM
TGI [9]: 27.8 µM
TGI [10]: 33.5 µM

COc1ccc(/C=C/C(C(=O)O)C(=O)O)cc1
TGI [1]: > 100 µM
TGI [2]: > 100 µM
TGI [3]: > 100 µM
TGI [4]: > 100 µM
TGI [5]: > 100 µM
TGI [6]: > 100 µM
TGI [7]: > 100 µM
TGI [8]: > 100 µM
TGI [9]: > 100 µM
TGI [10]: > 100 µM

CCc1cccc(C(C)CC)c1NC(=O)CC1C(=O)Nc2ccccc2S1=O (configuration not stated)
TGI [1]: > 100 µM
TGI [2]: > 100 µM
TGI [3]: > 100 µM
TGI [4]: 68.1 µM
TGI [5]: > 100 µM
TGI [6]: 46.2 µM
TGI [7]: 92.9 µM
TGI [9]: > 100 µM
TGI [10]: > 100 µM

CN(C)CCNC(=O)c1cccc2c1nc(-c1ccccn1)c1ccccc12
TGI [1]: 27.9 µM
TGI [2]: 32 µM
TGI [4]: 29.9 µM
TGI [5]: 36.3 µM
TGI [6]: 30.4 µM
TGI [7]: 67.9 µM
TGI [8]: > 100 µM
TGI [10]: 31 µM

COc1ccc(S(=O)(=O)N/N=C(\C)CN2C(=O)c3ccccc3C2=O)cc1
TGI [1]: > 100 µM
TGI [2]: > 100 µM
TGI [3]: > 100 µM
TGI [4]: > 100 µM
TGI [5]: > 100 µM
TGI [6]: > 100 µM
TGI [7]: > 100 µM
TGI [8]: > 100 µM
TGI [9]: > 100 µM
TGI [10]: > 100 µM

CC1(CO)C(=O)OC12CCCCC2 (configuration not stated)
TGI [1]: > 100 µM
TGI [2]: > 100 µM
TGI [4]: > 100 µM
TGI [5]: > 100 µM
TGI [6]: > 100 µM
TGI [7]: > 100 µM
TGI [8]: > 100 µM
TGI [9]: > 100 µM
TGI [10]: > 100 µM

COc1ccc(CCC2NCCc3cc(OC)c(OC)cc32)cc1 (configuration not stated)
TGI [1]: > 100 µM
TGI [3]: > 100 µM
TGI [4]: > 100 µM
TGI [6]: > 100 µM
TGI [7]: > 100 µM
TGI [8]: > 100 µM
TGI [9]: > 100 µM
TGI [10]: > 100 µM

COC(=O)c1cc2c(cc1Cl)SC(N(N(C)C)S(=O)(=O)c1ccc(Cl)cc1)=NS2(=O)=O
GI50 [1]: 17.2 µM
TGI [1]: > 100 µM
GI50 [11]: 8.42 µM
TGI [11]: 26.7 µM
GI50 [4]: 15.9 µM
TGI [4]: 29.3 µM
GI50 [6]: 15.8 µM
TGI [6]: 31.5 µM
GI50 [8]: 13.8 µM
TGI [8]: 27 µM
GI50 [12]: 18.8 µM
TGI [12]: 48.6 µM

Cc1nc2ccc(NCCN(C)C)c3c(=O)c4cc(O)ccc4n1c23
TGI [1]: 3.39 µM
TGI [2]: 9.27 µM
TGI [11]: 14.8 µM
TGI [4]: 11.7 µM
TGI [5]: 2.14 µM
TGI [6]: 12.2 µM
TGI [8]: 4.09 µM
TGI [12]: 2.77 µM
TGI [9]: 11.1 µM

O=C1C(=O)c2c(nc3ncccn23)-c2ccccc21
GI50 [1]: 0.23 µM
TGI [1]: 0.516 µM
GI50 [11]: 0.264 µM
TGI [11]: 1.02 µM
GI50 [4]: 0.21 µM
TGI [4]: 0.41 µM
GI50 [6]: 0.188 µM
TGI [6]: 0.388 µM
GI50 [8]: 0.678 µM
TGI [8]: 1.9 µM
GI50 [12]: 0.244 µM
TGI [12]: 0.631 µM

CC(=O)OC1=C2C(CC3C4CC=C5CC(OC(C)=O)CCC5(C)C4CCC23C)C2C(=O)N(Cc3ccccc3)C(=O)C2C1 (configuration not stated)
GI50 [1]: 4.33 µM
TGI [1]: 34 µM
GI50 [11]: 3.12 µM
TGI [11]: 20.1 µM
GI50 [4]: 28.9 µM
TGI [4]: > 100 µM
GI50 [6]: 3.48 µM
TGI [6]: 14.4 µM
GI50 [8]: 5.98 µM
TGI [8]: 46.8 µM
GI50 [12]: 15.7 µM
TGI [12]: > 100 µM

COc1ccc(Cn2cc(Cn3c(=O)c(-c4nc5ccccc5[nH]4)cc4ccccc43)nn2)c(OC)c1OC
GI50 [1]: 0.213 µM and 0.477 µM
GI50 [11]: 0.154 µM and 0.804 µM
GI50 [4]: 0.539 µM and 0.912 µM
TGI [4]: 1.66 µM and 4.61 µM
GI50 [6]: 0.144 µM and 0.206 µM
TGI [6]: 0.664 µM and 0.872 µM
GI50 [8]: 0.226 µM and 0.186 µM
TGI [8]: 1.39 µM and 1.48 µM
GI50 [12]: 0.0778 µM and 0.168 µM
